# Reference: patent US11110080B2, “Small molecule inhibitors of bacterial efflux pumps and methods of using same” (The Regents of the University of Colorado, a body Corporate, priority 2017, dated 2021)
# How the values were obtained:
# [1] = system: S.Tm in RAW 264.7 macrophages; test: SAFIRE in the presence of a transcriptional (DRB) or translational (cycloheximide) inhibitor; type: cell-based, Salmonella enterica serovar Typhimurium; conditions: 100 μM DRB or 1 μM cycloheximide, no EPM
# Protocol: FIG. 13A depicts that RAWs were infected and treated with 25 μM of the indicated compounds using SAFIRE. From 2-18 hours post-infection, cells were treated with DMSO, 100 μM DRB, or 1 μM cycloheximide (CHX). Data for each inhibitor (DRB, CHX) treatment are normalized to cells not treated with EPMs, as differences in basal infection were observed (FIG. 10). Data are mean+SEM of three independent biological replicates, each performed in triplicate. FIG. 13B depicts that RAWs were seeded in 6-well dishes and treated in parallel with FIG. 13A. RNA was extracted at the indicated timepoints, reverse transcribed, and expression of the indicated genes was determined using qPCR. Data shown are mean+SEM of four separate wells from one replicate, and were performed in parallel with one replicate of (A). ****p<0.0001 compared to uninfected by two-way ANOVA with Dunnett's post-test.
# Therefore, the question was whether the EPMs require host transcription or translation of AMPs or other factors, for antimicrobial activity. SAFIRE was performed in the presence of a transcriptional (DRB) or translational (cycloheximide) inhibitor (FIG. 13). Since exposure to inhibitors prior to infection greatly diminished macrophage viability, DRB or cycloheximide was added 2 hours post-infection, concurrently with EPMs. […]
# S.Tm = test: Swimming assay in soft agar (proton motive force); type: cell-based, Salmonella enterica serovar Typhimurium; conditions: 50× the MIC (6.25 mM)
# Protocol: One way to inhibit efflux pumps is to disrupt the proton motive force, which is required for transport by some EPs. […] Bacteria were injected into the center of 0.25% agar plates, and 10 μl of compound was added to paper disks on the periphery. […] Also ampicillin and rifampicin were tested. We plotted the halo radius versus the concentration as the fold above the MIC (FIG. 9G). […] Next, it was determined whether PAβN inhibited swimming; PAβN is thought to disrupt membranes over long incubations. […] Finally, the EPMs at […] were tested (FIGS. 9D-F).
# Saturated overnight cultures were diluted to an OD600 of 0.01 in LB and 1 μL was injected into the center of low agar (0.25%) LB plates. Ten microliters of the indicated compounds were added to sterilized Whatman paper disks (diameter 0.7 cm) placed equidistant from the plate center.
# [2] = system: bacterial inner membrane potential; test: TMRM incorporation (inner membrane potential); type: cell-based, Salmonella; conditions: 30 minutes, CCCP 1 mM
# Protocol: (§1) FIGS. 20A and 20B depict Bacteria treated with DMSO or EPMs [100 μM] but not CCCP [1 mM] acquire TMRM staining within 30 minutes. FIG. 20A depicts representative data from one of three independent experiments. FIG. 20B depicts median fluorescence intensity from three experiments normalized to unstained control (0). FIG. 20C depicts disk diffusion assays; the radius of the zone of growth inhibition after 16 hours of exposure to compound across a dose range. Black lines, semilog fit for the combined antibiotic data; gray lines, semilog fit for CCCP and PAβN; dotted line, limit of detection (disk radius). Average of two measurements from each image captured from one experiment representative of two independent experiments. FIGS. 20D and 20E depict nitrocefin access to the periplasm as monitored by nitrocefin [100 μM] hydrolysis in the presence of the indicated concentrations of compounds. FIG. 20D depicts absorbance 486 nm of bla+ Salmonella normalized to bla− Salmonella. […]
# To establish whether the three EPMs alter bacterial inner membrane potential, their effect on the incorporation of the voltage-sensitive dye Tetramethylrhodamine methyl ester (TMRM) was observed. […] To establish whether a longer incubation with the EPMs may compromise membrane integrity, the effect of the EPMs on bacterial swimming, an energy intensive activity was monitored over 15 hours (FIGS. 20C, 10). […]
# bacterial outer membrane = test: Nitrocefin access to the periplasm (outer membrane permeability); type: cell-based, Salmonella
# Protocol: as §1, with “Salmonella. Data is representative of 3-4 independent biological replicates. FIG. 20E depicts slope of the linear region of the A486 plot from at least three experiments. Data is normalized to A486/minute. *p<0.05, ***p<0.001, ****p<0.0001 by one-way ANOVA with Dunnett's post-test.” for “Salmonella.”
# [3] = system: Salmonella enterica serovar Typhimurium (S.Tm) within RAW 264.7 murine macrophages; test: SAFIRE: fluorescence microscopy assay of S.Tm load within macrophages; type: cell-based
# Protocol: A high-content, high-throughput fluorescence microscopy-based screening platform to assay S.Tm load within macrophages was developed (FIG. 1A). RAW 264.7 murine macrophages, a widely used cell line for bacterial infection studies, were infected with bacteria in a standard gentamicin protection assay. The Salmonella expressing GFP driven by the sifB promoter was incubated with the compound beginning at 2 hours post-infection. At 18 hours post-infection, cells were stained with MitoTracker Red CMXRos as a marker of macrophage vitality and processed for fluorescence microscopy. Stained with DAPI. A MATLAB®-based algorithm was developed to quantify infection (FIG. 1B) and compared to statistics to describe infection. Percentage of infected cells was determined by counting the proportion of macrophages within an image with at least 2 GFP+ pixels. Infection area was calculated by normalizing the number of GFP+ pixels within a cell to the cell's total area, then averaging across all cells in an image. To evaluate the approach, 2 μg/ml rifampicin in 96-well and 384-well plates was tested in three independent replicates. The Z′-factor was employed as a measure of assay reproducibility. Numbers close to 1 indicated high reproducibility. For percentage of infected macrophages, the Z′-factor was 0.59 and 0.48 in 96-well and 384-well plates, respectively, compared with 0.66 and 0.38 for infection area. The optimal Z′-factor threshold for high-throughput screening was 0.5; however, values above 0 were considered marginal but feasible. Therefore, the percentage of infected macrophages statistic was used.
# The 14,400 compound library Maybridge HitFinder™ v11 was screened, which has been extensively screened against mammalian and microbial targets. The library was screened in duplicate at 25 μM in 384-well plates (FIG. 1C). Data were normalized using the B-score method to remove positional variation. The significance of B-scores was calculated using a modified t-test assuming an inverse gamma distribution of variances. Using a dual threshold of B-score greater than 1 and standard deviation from the mean and p-value less than 0.05, 908 compounds (6.3%) were identified that decreased or increased the percentage of infected macrophages. […] Compounds that altered infection by at least 25% in 96-well plates were considered validated hits.
# For high-throughput screening and validation, 7×10^3 macrophages in 40 μL or 3×10^4 macrophages in 100 μL were seeded in 384- or 96-well black-walled, glass-bottomed plates (Brooks Automation). […] Forty-five minutes after bacterial addition, 20 or 50 μL gentamicin was added to a final concentration of 40 μg/mL. […] At 2 hours post-infection, 200 or 500 nL compound was added using a pin tool (CyBio) to yield a final concentration of 25 μM. Each assay plate included rifampicin and DMSO controls. In some experiments, media was removed and replaced with fresh medium containing 40 μg/mL gentamicin and the indicated concentrations of drugs. At 17.5 hours post-infection, PBS containing MitoTracker Red CMXRos (Life Technologies) was added to yield a final concentration of 300 nM (384-well) or 100 nM (96-well). Thirty minutes later, 16% paraformaldehyde was added to a final concentration of 1-2% and incubated at room temperature for 15 minutes. Wells were washed twice with PBS and stained for 20 minutes with 1 μM DAPI; wells were washed twice and stored in 90% glycerol in PBS until imaging.
# High magnification images were acquired on an Olympus IX81 inverted widefield microscope. For screening imaging, three-color images were acquired at 10× or 20× on a Cellomics ArrayScan VTI (Thermo) and exported to DIB files. At least two images were taken per well for all experiments. […]
# [4] = Freeze-thaw sensitivity of DMSO solution, read out by SAFIRE; type: physicochemical; conditions: 25 μM; freeze thawed 20 times vs freshly dissolved
# Protocol: SAFIRE was used to quantify infection of macrophages treated with 25 μM nalidixic acid that was cherry-picked from the plates used to perform the screen (n=2), freshly dissolved in DMSO (n=3), or freshly dissolved and freeze thawed 20 times (n=3). Data are mean+SEM.
compound,measurement,setting,value
OC[C@H]1O[C@@H](n2cnc3cc(Cl)c(Cl)cc32)[C@H](O)[C@@H]1O [DRB],basal infection of macrophages,[1],decreased basal infection
"N#CC(C#N)=NNc1cccc(Cl)c1 [CCCP, reference compound]",halo in swimming assay,S.Tm,creating a halo
same,decrease of TMRM levels versus DMSO,[2],approximately 50 fold
polymyxin B,nitrocefin access to the periplasm,bacterial outer membrane; 1 μg/mL,do not by themselves allow nitrocefin access to the periplasm
same,nitrocefin access to the periplasm,bacterial outer membrane; 5 μg/mL,high enough to allow nitrocefin access to the periplasm
CCn1cc(C(=O)O)c(=O)c2ccc(C)nc21 [Nalidixic acid],"B-score, first replicate of the screen",[3]; 25 μM,−4.41
same,"B-score, second replicate of the screen",[3]; 25 μM,0.70
same,hit status in SAFIRE screen,[3]; Maybridge HitFinder v11 library screened at 25 μM,Nalidixic acid^2
same,sensitivity to freeze-thawing when dissolved in DMSO,[4],sensitive to freeze-thawing
"C[C@@H]1C[C@@H]([C@H](O)CC2CC(=O)NC(=O)C2)C(=O)[C@@H](C)C1 [cyclohexamide, cycloheximide]",basal infection of macrophages,[1],decreased basal infection
